Measurements taken from US8822528B2, “Monensin derivatives for the treatment and prevention of protozoal infections” (Merial Limited, priority 2010, dated 2014).

Assays:
[1] = tested on: Eimeria tenella; assay: In vitro efficacy against Eimeria tenella in infected MDBK cell culture (schizonts/merozoites counted microscopically); assay type: cell-based; parameters: Activity in inhibiting development of Eimeria tenella in vitro (schizonts and merozoites) / Presence of schizonts/merozoites (microscopic observation, picture): dose or concentration left out as unconfirmed; details: for Inhibition of development of Eimeria tenella in cell culture (formation of merozoites): five different concentrations in the presence of the parasite (FIG. 30); for Activity in inhibiting development of Eimeria tenella in vitro (schizonts and merozoites) / Presence of schizonts/merozoites (microscopic observation, picture): second series; for Activity in inhibiting development of Eimeria tenella in vitro (schizonts and merozoites): one concentration of 3.125 (FIG. 30A); for Presence of schizonts/merozoites (microscopic observation, picture): 3.125, FIG. 30B/30C; for Activity towards the parasite Eimeria tenella (summary): summary of in vitro testing of fifteen polyether ionophores; for Development of Eimeria tenella in vitro / Inhibition of the parasite Eimeria tenella: third series; for Development of Eimeria tenella in vitro: at very low concentrations (<0.39 μg/μL) (FIG. 31B); for Inhibition of the parasite Eimeria tenella: at low concentrations (FIG. 31B)
Procedure: Once the IC50 concentration was determined, the test was performed on infected cells. The working concentration chosen was always lower than IC50.
After having cultured cells at 40° C. in each well of a 96-well plate, they were treated with a specific concentration (<IC50, allowing the inhibition of parasites in over 50% of cells) of polyether ionophore. Then, the sporozoites of Eimeria tenella were excysted and the cells infected with purified sporozoites. After incubation for 24 hrs at 40° C., the medium was changed. The efficiency of molecules was evaluated microscopically after 40 hrs and 48 hrs. The release of merozoites was noted (FIG. 30B). Thus, in explicit cases, the merozoites released were counted; in ambiguous cases, the quantitative PCR ([…]) will be used. For each test, a positive control of treatment (with monensin 1a) and a positive control of infection was made.

[2] = tested on: MDBK cells; assay: Cytotoxicity testing / IC50 determination on MDBK cells (Cell Titer, tetrazolium to formazan, 96-well); assay type: cell-based, Bovine; details: summary statement
Description: Cytotoxicity testing. For the prevention and the treatment, a compound is considered effective when it is non toxic or its toxicity is low for host cells but high for the target (parasite). For cytotoxicity testing and determination of the IC50, the in vitro model is one of the best methods, enabling this type of testing to be carried out directly on cells alone without fear of fatal consequences as in vivo. The IC50 is the maximum concentration at which at least 50% of cells survive following a treatment. All concentrations above it are excluded for the test; values below it, on the other hand, can be tested in order to determine the concentration that will totally or partially eliminate the parasite or inhibit its development. This test consists in testing several concentrations on cell culture in 96-well plate; the concentrations are tested in duplicate, and the cytotoxicity of the molecules is evaluated with special kits based on an oxidation-reduction reaction at the cell-machinery level (mitochondria).
As in the MTT kit (Promega), the reagent used is the tetrazolium salt MTT (3-[4,5-dimethylthiazol-2-yl]-2,5-diphenyltetrazolium bromide). The tetrazolium ring that it contains is reduced to formazan by the mitochondrial succinate dehydrogenase of active living cells. The color of the medium thus changes from yellow to purplish-blue. The intensity of this color is proportional to the number of living cells present at the time of testing but also to their metabolic activity. The percentage of living cells is determined from the ratio between the absorbance for the test well and the absorbance for the control well (cells alone).
Initially, the inhibitory concentration IC50 was determined. It corresponded to the concentration of polyether ionophore allowing the viability of 50% of cells. Bovine cells were cultured and incubated for 24 hrs at 40° C. in the wells of a 96-well plate. Then, a fixed concentration ([…]) of polyether ionophore was added to each well. The cells were incubated at 40° C. for 24 hrs. 20 μL, of “Cell Titer” was added to each well. The cells were again incubated for 30 min to 1 hour at 40° C. before the plate was read in a plate reader at a wavelength of 490 nm (maximum absorption of the formazan). This reading determined the optical density (OD) of each well and allowed access to the percentage of inhibition. I50=(ODtreated/ODcontrol)×100 […]=[1−(ODtreated/ODcontrol)]×100.
FIG. 26 represents a 96-well plate after adding “Cell Titer”. The intensity of colours depends on the toxicity of the polyether ionophore tested. Increasing color intensity corresponded to increasing number of living cells. […]

CC[C@@]1([C@@H]2O[C@@H]([C@H]3O[C@@](O)(CO)[C@H](C)C[C@@H]3C)C[C@@H]2C)CC[C@H]([C@]2(C)CC[C@]3(C[C@H](O)[C@@H](C)[C@@H]([C@@H](C)[C@@H](OC)[C@H](C)C(=O)O)O3)O2)O1 [Compound 1a, Monensin]
Inhibition of development of Eimeria tenella in cell culture (formation of merozoites) ([1]; first series): inhibited the formation of merozoites at very low concentrations

CCC1(C2OC(C3OC(O)(CO)C(C)CC3C)CC2C)CCC(C2(C)CCC3(CC(O)C(C)C(C(C)C(OC)C(C)C(=O)NCc4ccccc4)O3)O2)O1 (stereo not drawn) [Compound 3a, 1-benzylamidomonensine]
Inhibition of development of Eimeria tenella in cell culture (formation of merozoites) ([1]; first series): did not appear to significantly inhibit

CCC1(C2OC(C3OC(O)(CO)C(C)CC3C)CC2C)CCC(C2(C)CCC3(CC(O)C(C)C(C(C)C(OC)C(C)C(=O)NCc4ccc(C(=O)OC)cc4)O3)O2)O1 (stereo not drawn) [Compound 3b, 1-(4-methylbenzoate)methylene Amidomonensine]
Inhibition of development of Eimeria tenella in cell culture (formation of merozoites) ([1]; first series): did not appear to significantly inhibit

CCC1(C2OC(C3OC(O)(CO)C(C)CC3C)CC2C)CCC(C2(C)CCC3(CC(O)C(C)C(C(C)C(OC)C(C)C(=O)NCc4cccc(C(=O)OC)c4)O3)O2)O1 (stereo not drawn) [Compound 3c, 1-(3-methylbenzoate)methylene Amidomonensin]
Activity in inhibiting development of Eimeria tenella in vitro (schizonts and merozoites) [1]: no significant activity

CCC1(C2OC(C3OC(O)(CO)C(C)CC3C)CC2C)CCC(C2(C)CCC3(CC(O)C(C)C(C(C)C(OC)C(C)C(=O)NC(C(=O)OC)c4ccc(F)cc4)O3)O2)O1 (stereo not drawn) [Compound 4c, Methyl 2′-(monensinamido)-2′-(4′-fluorophenyl)acetate]
Activity in inhibiting development of Eimeria tenella in vitro (schizonts and merozoites) [1]: no significant activity

CCC1(C2OC(C3OC(O)(CO)C(C)CC3C)CC2C)CCC(C2(C)CCC3(CC(O)C(C)C(C(C)C(OC)C(C)C(=O)NCc4ccc(C(=O)O)cc4)O3)O2)O1 (stereo not drawn) [Compound 6a, 1-(benzoic acid)methylene Amidomonensine]
Inhibition of development of Eimeria tenella in cell culture (formation of merozoites) ([1]; first series): did not appear to significantly inhibit

CCC12CCC(O1)C1(C)CCC3(CC(O)C(C)C(O3)C(C)C(OC)C(C)C(=O)OCC3(O)OC(C(C)CC3C)C3CC(C)C2O3)O1 (stereo not drawn) [Compound 7, Monensin Lactone]
Concentration at which formation of merozoites was inhibited ([1]; first series, at high concentrations (FIG. 30)): greater than or equal to 12.5 g/μL

CCC1(C2OC(C3OC(CO)(OC)C(C)CC3C)CC2C)CCC(C2(C)CCC3(CC(O)C(C)C(C(C)C(OC)C(C)C(=O)O)O3)O2)O1 (stereo not drawn) [Compound 8a, 25-Methoxymonensin]
Cytotoxicity (summary in words) [2]: very low cytotoxicities | Presence of schizonts/merozoites (microscopic observation, picture) [1]: absence of schizonts and merozoites | Presence of schizonts/merozoites (microscopic observation, picture) ([1]; listed as EV 02058): merozoites not present | Activity in inhibiting development of Eimeria tenella in vitro (schizonts and merozoites) [1]: very high efficacy | Activity towards the parasite Eimeria tenella (summary) [1]: significant activity

CCC1(C2OC(C3OC4(COC(=O)CO4)C(C)CC3C)CC2C)CCC(C2(C)CCC3(CC(O)C(C)C(C(C)C(OC)C(C)C(=O)O)O3)O2)O1 (stereo not drawn) [Compound 12, Oxo-dioxane Monensin]
Cytotoxicity (summary in words) [2]: very low cytotoxicities | Activity towards the parasite Eimeria tenella (summary) [1]: significant activity | Development of Eimeria tenella in vitro [1]: completely inhibited

CCC12CCC(O1)C1(C)CCC3(CC(OC)C(C)C(O3)C(C)C(OC)C(C)C(=O)OCC3(OC)OC(C(C)CC3C)C3CC(C)C2O3)O1 (stereo not drawn) [Compound 14a, 7,25-dimethoxylactone]
Presence of schizonts/merozoites (microscopic observation, picture) [1]: merozoites present | Activity in inhibiting development of Eimeria tenella in vitro (schizonts and merozoites) [1]: no significant activity

CCC12CCC(O1)C1(C)CCC3(CC(=O)C(C)C(O3)C(C)C(OC)C(C)C(=O)OCC(=O)C(C)CC(C)C(=O)C3CC(C)C2O3)O1 (stereo not drawn) [Compound 18, Triacetone Lactone]
Inhibition of the parasite Eimeria tenella [1]: did not inhibit

CCC1(C2OC(C3OC(=O)C(C)CC3C)CC2C)CCC(C2(C)CCC3(CC(=O)C(C)C(C(C)C(OC)C(C)C(=O)O)O3)O2)O1 (stereo not drawn) [Compound 19, oxo-lactone Monensin]
Cytotoxicity (summary in words) [2]: very low cytotoxicities | Activity in inhibiting development of Eimeria tenella in vitro (schizonts and merozoites) [1]: significant efficacy | Activity towards the parasite Eimeria tenella (summary) [1]: satisfactory and encouraging results

CCC1(C2OC(C3OC4(COC(=O)CO4)C(C)CC3C)CC2C)CCC(C2(C)CCC3(CC(=O)C(C)C(C(C)C(OC)C(C)C(=O)O)O3)O2)O1 (stereo not drawn) [Compound 26, 7-oxo-monensin Oxodioxane]
Inhibition of the parasite Eimeria tenella [1]: did not inhibit

CCC1(C2OC(C3OC(CO)(OCC(=O)O)C(C)CC3C)CC2C)CCC(C2(C)CCC3(CC(O)C(C)C(C(C)C(OC)C(C)C(=O)O)O3)O2)O1 (stereo not drawn) [Compound 27, O-25-glycolic Acid Monensin]
Cytotoxicity (summary in words) [2]: very low cytotoxicities | Activity towards the parasite Eimeria tenella (summary) [1]: significant activity | Development of Eimeria tenella in vitro [1]: completely inhibited

CCC1(C2OC(C(O)C(C)CC(C)C(=O)O)CC2C)CCC(C2(C)CCC3(CC(=O)C(C)C(C(C)C(OC)C(C)C(=O)O)O3)O2)O1 (stereo not drawn) [Compound 31, 7-oxo, 21-hydroxy, 25-acid Monensin]
Concentration at which significantly effective against the parasite ([1]; third series (FIG. 31B)): greater than 1.56 g/μL | Inhibition of the parasite Eimeria tenella [1]: did not inhibit
